Data: patent publication US20080125447A1, “Combination Therapy” (priority 2004, published 2008)

Test system: Calu-6 tumour xenograft
Assay: Calu-6 tumour xenograft in vivo solid tumour model
Conditions: once-daily oral, 28 days

`COc1cc2c(Oc3ccc4[nH]c(C)cc4c3F)ncnc2cc1OCCCN1CCCC1` [AZD2171, 4-(4-fluoro-2-methyl-1H-indol-5-yloxy)-6-methoxy-7-(3-(pyrrolidin-1-yl)propoxy)quinazoline] was tested, and the “inhibition of Calu-6 tumour xenograft growth” value (“inhibition” for short) (1.5 mg/kg/day, P<0.01 one-tailed t test) was 49%, the “inhibition” value (3 mg/kg/day, P<0.0001 one-tailed t test) was 69% and the “inhibition” value (6 mg/kg/day, P<0.0001 one-tailed t test) was 91%.
